According to PMC10094136, “Neurog1-Derived Peptides RMNE1 and DualPep-Shine Penetrate the Skin and Inhibit Melanin Synthesis by Regulating MITF Transcription” (International Journal of Molecular Sciences, 2023):
Where a SMILES comes first, the peptide text is derived from it.

Tests used:
B16F10 cells [1] = experiment: Localization of penetrated peptide by confocal microscopy; type: cell-based; conditions: B16F10, FITC-conjugated peptide, 2 h, Hoechst 33342 nucleus staining
Method: Figure 3 DualPep-Shine regulates the expression of melanogenic genes and inhibits the promoter activity of MITF-M. (A) B16F10 cells were treated with various concentrations of DualPep-Shine for 72 h. Melanin contents were determined at OD 405 nm. (B) DualPep-Shine was treated with α-MSH for 24 h, and whole-cell lysates were subjected to Western blotting. Indicated antibodies were used to analyze melanogenic proteins. (C) mRNA levels of MITF, Tyr, TRP1, and TRP2 were analyzed using quantitative polymerase chain reaction (qPCR) after treatment with DualPep-Shine for 12 h. The gene expression was normalized with β-actin. (D) FITC-conjugated DualPep-Shine was treated for 2 h on B16F10 cells, and its localization was visualized using confocal microscopy. Hoechst 33342 was used for nucleus staining. Bar = 10 μm. […] The results are presented as mean ± SD, and statistical significance was analyzed with Student’s t-test (** p < 0.01, *** p < 0.001).
B16F10 cells were seeded in a 24-well plate and treated with 2.5 μM of FITC conjugated TAT, RMNE1, or DualPep-Shine for 2 h. […] Penetrated peptides were evaluated via flow cytometry by measuring FITC levels. […] The cells were washed again with PBS five times, mounted on a slide glass using gel/mount solution (Biomeda, Foster City, CA, USA), and the penetrated peptides were visualized using a fluorescence microscope. […]

HaCaT cells = experiment: Cell viability CCK-8 assay, HaCaT; type: cell-based; conditions: up to highest concentration, 72 h (legend; method says 24 h), CCK8
Method: (§1) (A) B16F10 and HaCaT cells were treated with the indicated concentration of DualPep-Shine for 72 h, and relative cell viability was measured using Cell Counting Kit 8 (CCK8) assay. Doxorubicin was used for positive control. (B) Phorbol 12-myristate 13-acetate (PMA)-differentiated THP-1 cells were treated with different concentrations of DualPep-Shine for 24 h. TNF-α from supernatants was measured using the enzyme-linked immunosorbent assay (ELISA). (C) DualPep-Shine was incubated with indicated temperature conditions for 45 days. B16F10 cells were treated with different concentrations for 72 h, and melanin contents were measured at OD 405 nm. The results are presented as mean ± SD, and statistical significance was analyzed with Student’s t-test (NS: not significant, *** p < 0.001).
(§2) Cell viability was measured using a CCK-8 assay (Dojindo, Tokyo, Japan). HaCaT and B16F10 cells were cultured in a 96-well plate at a 6 × 10^3 cells/well and incubated in a complete medium at 37 °C with 5% CO2 overnight. Each cell type was treated with different concentrations of peptides for 24 h. After removing the medium, CCK-8 solution was added in a dark room at 37 °C. Absorbance was measured at 450 nm using a microplate reader.

B16F10 cells [2] = experiment: Cell viability CCK-8 assay, B16F10; type: cell-based; conditions: B16F10, up to highest concentration, 72 h (legend; method says 24 h), CCK8
Method: as §1, §2

THP-1 cells = experiment: TNF-α secretion ELISA in PMA-differentiated THP-1 cells (immunogenicity); type: cell-based; conditions: PMA-differentiated THP-1, up to 100 μM, 24 h
Method: as §1

[3] = Storage stability of peptide, read out as anti-melanin activity in B16F10 cells; type: physicochemical; conditions: peptide stored at −20 °C, 25 °C and 37 °C for 45 days; then B16F10 72 h, melanin at OD 405 nm
Method: as §1
B16F10 cells (1 × 10^5) were seeded in a 24-well plate and incubated for 16 h. The cells were treated with α-MSH (Sigma-Aldrich, Darmstadt, Germany) and peptides for 72 h. The cells were incubated at 37 °C in 5% CO2. […] Then, melanin levels were determined by measuring the absorbance at 405 nm using a microplate reader. […] B16F10 cells were then treated with different concentrations of peptides, and melanin contents were measured to check the stability of DualPep-Shine.

- Intracellular localization (B16F10 cells [1]): mainly localized in the nucleus
- Anti-pigmentation activity after pre-incubation (stability) [3]: maintained
Structure (SMILES): C[C@@H](O)[C@H](NC(=O)[C@H](CCCNC(=N)N)NC(=O)CNC(=O)[C@H](CCCNC(=N)N)NC(=O)[C@H](CCCNC(=N)N)NC(=O)[C@H](CCCNC(=N)N)NC(=O)[C@H](CCCNC(=N)N)NC(=O)[C@H](CCCNC(=N)N)NC(=O)[C@H](CCC(=O)O)NC(=O)[C@H](CCC(N)=O)NC(=O)[C@H](CCC(=O)O)NC(=O)[C@@H](N)CC(=O)O)C(=O)N[C@@H](CCCNC(=N)N)C(=O)O [DualPep-Shine] (H-DEQERRRRRGRTR-OH)
- Cell viability (HaCaT cells): not affected
- Cell viability (B16F10 cells [2]): not affected
- TNF-α secretion (immunogenicity) (THP-1 cells): did not induce tumor necrosis factor α (TNF-α) secretion
